Laboratory results published in patent publication US20260285888A1, “HETEROCYCLIC COMPOUND AND USE THEREOF” (OTSUKA PHARMACEUTICAL CO., LTD., priority 2023, published 2026).
One block for each molecule: values may come before it.

Key:
[1] = Study for confirmation of conversion to brexpiprazole in a buffer (stability of the evaluation compounds); type: physicochemical; conditions: in buffer, average of duplicate; for Concentration of brexpiprazole formed: 60-minute reaction sample; for Concentration of evaluation compound decreased: decrease in 60-minute vs 0-minute reaction sample
Method in brief: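 Compounds (final 1 μmol/L, from 100 μmol/L working solutions) incubated in buffer at 37° C. for 0 or 60 min, in duplicate, after 3 min pre-incubation of the reaction solution. Reactions stopped with acetonitrile/isopropanol (4:1) containing internal standards; compound and formed brexpiprazole quantified against 0.01–1 μmol/L calibration samples.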

HL-60 cells = assay: in vitro; type: cell-based, human
Method in brief: (§1)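 HL-60 cells differentiated ~72 h with 10 nM PMA, then exposed ~24 h to compound at 300 μmol/L final in RPMI with 2% FBS. LDH release in supernatant gave cytotoxicity % scaled between untreated (0%) and lysis-buffer (100%) groups; triplicate.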

[2] = Dog irritation study (subcutaneous injection site, histopathological examination); type: in vivo; conditions: stated as reason for choice as positive control
Protocol: Male beagle dogs were purchased at the age of 5-7 months from Kitayama Labes Co., Ltd. and used in the experiment after acclimatization. The breeding environment was as follows: feeding: 250 g of solid feed once a day, water intake: unlimited, number of animals per cage: 1, temperature: 21-25° C., humidity: 50-70%, lighting time: 7:00-19:00. The test formulation was subcutaneously administered to dogs anesthetized with 25 mg/kg thiopental sodium using a plastic syringe at a dose of 10 mg/kg per formulation, changing the position on the back. […] The collected tissues were fixed in 10% neutral buffered formalin, and hematoxylin and eosin-stained specimens were prepared for histopathological examination.

in vitro = type: cell-based, human; conditions: human, differentiated hl-60 cells, 300 μmol/L, about 24 hours, PMA-differentiated HL-60 cells, LDH; no-treatment 0%, cell lysis buffer 100%; read-out: cytotoxicity (%) Evaluation compound results
Method in brief: as §1

[3] = human, differentiated hl-60 cells, 24 h, 300 µM

Molecule: CCOP(=O)([O-])OC[N+]1(CCCCOc2ccc3ccc(=O)[nH]c3c2)CCN(c2cccc3sccc23)CC1 [EX 3, (4-(benzo[b]thiophen-4-yl)-1-(4-((2-oxo-1,2-dihydroquinolin-7-yl)oxy)butyl)piperazin-1-ium-1-yl)methyl ethyl phosphate]
Concentration of brexpiprazole formed [1]: 0 nM
Concentration of evaluation compound decreased [1]: 10 nM
cytotoxicity (%) Evaluation compound results (HL-60 cells; 300 μmol/L, about 24 hours, PMA-differentiated HL-60 cells, LDH, no-treatment 0%, cell lysis buffer 100%): −7%

Molecule: COCCOCCOP(=O)([O-])OC[N+]1(CCCCOc2ccc3ccc(=O)[nH]c3c2)CCN(c2cccc3sccc23)CC1 [EX 7, (4-(benzo[b]thiophen-4-yl)-1-(4-((2-oxo-1,2-dihydroquinolin-7-yl)oxy)butyl)piperazin-1-ium-1-yl)methyl (2-(2-methoxyethoxy)ethyl)phosphate]
Concentration of brexpiprazole formed [1]: 0 nM
Concentration of evaluation compound decreased [1]: -60 nM
cytotoxicity (%) Evaluation compound results (HL-60 cells; [3]): −4%

Molecule: O=C(OC[N+]1(CCCCOc2ccc3ccc(=O)[nH]c3c2)CCN(c2cccc3sccc23)CC1)N1CCCCC1 [Reference Example 4 compound, reference compound]
cytotoxicity compared with the controls (in words) (HL-60 cells; 300 μmol/L, about 24 hours, HL-60 cells): stronger cytotoxicity than that of the Reference Example 3 compound

Molecule: CCCCCC(=O)OCn1c(=O)ccc2ccc(OCCCCN3CCN(c4cccc5sccc45)CC3)cc21 [Reference Example 3 compound, (7-(4-(4-(benzo[b]thiophen-4-yl)piperazin-1-yl)butoxy)-2-oxoquinolin-1(2H)-yl)methyl hexanoate]
irritation when subcutaneously administered to dogs [2]: showed irritation

Molecule: (4-(benzo[b]thiophen-4-yl)-1-(4-(2-oxo-1,2-dihydroquinolin-7-yl)oxy)butyl)piperazin-1-ium-1-yl)methyl (5-bromopentyl) phosphate [EX 114]
cytotoxicity (%) Evaluation compound results (HL-60 cells; [3]): 14%

Molecule: Cc1ncccc1C(=O)OCOP(=O)([O-])OC[N+]1(CCCCOc2ccc3ccc(=O)[nH]c3c2)CCN(c2cccc3sccc23)CC1 [EX 81, (4-(benzo[b]thiophen-4-yl)-1-(4-(2-oxo-1,2-dihydroquinolin-7-yl)oxy)butyl)piperazin-1-ium-1-yl)methyl (((2-methylnicotinoyl)oxy)methyl) phosphate]
Concentration of brexpiprazole formed [1]: 0 nM
Concentration of evaluation compound decreased [1]: -30 nM
cytotoxicity at 24 h, 300 µM (in vitro): 8%

Molecule: COCCC(=O)OCOP(=O)([O-])OC[N+]1(CCCCOc2ccc3ccc(=O)[nH]c3c2)CCN(c2cccc3sccc23)CC1 [EX 28, (4-(benzo[b]thiophen-4-yl)-1-(4-((2-oxo-1,2-dihydroquinolin-7-yl)oxy)butyl)piperazin-1-ium-1-yl)methyl (((3-methoxypropanoyl)oxy)methyl) phosphate]
Concentration of brexpiprazole formed [1]: -10 nM
Concentration of evaluation compound decreased [1]: -70 nM
cytotoxicity at 24 h, 300 µM (in vitro): -8%

Molecule: Cc1cccc(C(=O)OCCCCCCOP(=O)([O-])OC[N+]2(CCCCOc3ccc4ccc(=O)[nH]c4c3)CCN(c3cccc4sccc34)CC2)n1 [EX 59, (4-(benzo[b]thiophen-4-yl)-1-(4-((2-oxo-1,2-dihydroquinolin-7-yl)oxy)butyl)piperazin-1-ium-1-yl)methyl (6-((6-methylpicolinoyl)oxy)hexyl) phosphate]
Concentration of brexpiprazole formed [1]: 0 nM
Concentration of evaluation compound decreased [1]: 50 nM
cytotoxicity at 24 h, 300 µM (in vitro): 1%

Molecule: (4-(benzo[b]thiophen-4-yl)-1-(4-((2-oxo-1,2-dihydroquinolin-7-yl)oxy)butyl)piperazin-1-ium-1-yl)methyl(2-(2-butoxyethoxy)ethyl) phosphate [EX 99]
Concentration of brexpiprazole formed [1]: 0 nM
Concentration of evaluation compound decreased [1]: 0 nM
cytotoxicity (%) Evaluation compound results (HL-60 cells; [3]): −6%

Molecule: CC1(C)OCC(NC(=O)CCCC(=O)OCOP(=O)([O-])OC[N+]2(CCCCOc3ccc4ccc(=O)[nH]c4c3)CCN(c3cccc4sccc34)CC2)CO1 [EX 74, (4-(benzo[b]thiophen-4-yl)-1-(4-((2-oxo-1,2-dihydroquinolin-7-yl)oxy)butyl)piperazin-1-ium-1-yl)methyl (((5-((2.2-dimethyl-1,3-dioxan-5-yl)amino)-5-oxopentanoyl)oxy)methyl) phosphate]
Concentration of brexpiprazole formed [1]: 0 nM
Concentration of evaluation compound decreased [1]: 50 nM
cytotoxicity at 24 h, 300 µM (in vitro): -1%

Continued, in another order:

Concentration of brexpiprazole formed [1]: 0 nM
Concentration of evaluation compound decreased [1]: 0 nM
Molecule: (4-(benzo[b]thiophen-4-yl)-1-((4-((2-oxo-1,2-dihydroquinolin-7-yl)oxy)butyl)piperazin-1-ium-1-yl)methyl hydrogen phosphate [EX 1]
cytotoxicity (%) Evaluation compound results (HL-60 cells; [3]): −7%

Concentration of brexpiprazole formed [1]: 0 nM
Concentration of evaluation compound decreased [1]: 110 nM
Molecule: O=C(OCCCN1CCOCC1)OCOP(=O)([O-])OC[N+]1(CCCCOc2ccc3ccc(=O)[nH]c3c2)CCN(c2cccc3sccc23)CC1 [EX 146, (4-(Benzo[b]thiophen-4-yl)-1-(4-((2-oxo-1,2-dihydroquinolin-7-yl)oxy)butyl)piperazin-1-ium-1-yl)methyl ((((3-morpholinopropoxy)carbonyl)oxy)methyl) phosphate]
cytotoxicity at 24 h, 300 µM (in vitro): 1%

Concentration of brexpiprazole formed [1]: 0 nM
Concentration of evaluation compound decreased [1]: -30 nM
Molecule: CC(C)COP(=O)([O-])OC[N+]1(CCCCOc2ccc3ccc(=O)[nH]c3c2)CCN(c2cccc3sccc23)CC1 [EX 90, (4-(benzo[b]thiophen-4-yl)-1-(4-(2-oxo-1,2-dihydroquinolin-7-yl)oxy)butyl)piperazin-1-ium-1-yl)methyl isobutyl phosphate]
cytotoxicity at 24 h, 300 µM (in vitro): -6%

Concentration of brexpiprazole formed [1]: 0 nM
Concentration of evaluation compound decreased [1]: 140 nM
Molecule: O=c1ccc2ccc(OCCCC[N+]3(COP(=O)([O-])OCCN4CCC(F)(F)CC4)CCN(c4cccc5sccc45)CC3)cc2[nH]1 [EX 119, (4-(benzo[b]thiophen-4-yl)-1-(4-((2-oxo-1,2-dihydroquinolin-7-yl)oxy)butyl)piperazin-1-ium-1-yl)methyl (2-(4,4-difluoropiperidin-1-yl)ethyl) phosphate]
cytotoxicity at 24 h, 300 µM (in vitro): 2%

Concentration of brexpiprazole formed [1]: 0 nM
Concentration of evaluation compound decreased [1]: 140 nM
Molecule: CC(C)OCCOC(=O)OCOP(=O)([O-])OC[N+]1(CCCCOc2ccc3ccc(=O)[nH]c3c2)CCN(c2cccc3sccc23)CC1 [EX 133, (4-(benzo[b]thiophen-4-yl)-1-(4-((2-oxo-1,2-dihydroquinolin-7-yl)oxy)butyl)piperazin-1-ium-1-yl)methyl ((((2-isopropoxyethyloxy)carbonyl)oxy)methyl) phosphate]
cytotoxicity at 24 h, 300 µM (in vitro): -5%

Concentration of brexpiprazole formed [1]: 0 nM
Concentration of evaluation compound decreased [1]: 90 nM
Molecule: CCCCOCCOCCOCCOC(=O)OCOP(=O)([O-])OC[N+]1(CCCCOc2ccc3ccc(=O)[nH]c3c2)CCN(c2cccc3sccc23)CC1 [EX 138, (4-(benzo[b]thiophen-4-yl)-1-(4-((2-oxo-1,2-dihydroquinolin-7-yl)oxy)butyl)piperazin-1-ium-1-yl)methyl (3-oxo-2,4,7,10,13-pentaoxaheptadecyl) phosphate]
cytotoxicity at 24 h, 300 µM (in vitro): -7%
